Source: paper PMC6992361 (Molecular cancer therapeutics, 2019)

How the values were obtained:
[1] = test system: monolayer of endothelial cells; assay: Transendothelial electrical impedance assay; format: cell-based; details: S1P at 10 nM
[2] = test system: 786-O RCC tumor xenograft; format: in vivo; details: 786-O xenograft; sunitinib 50 mg/kg, Ex82 30mg/kg daily by gavage
[3] = test system: 786-O RCC tumor xenograft; assay: Arterial spin labeled MRI of tumor blood flow; format: in vivo, mouse; details: day 26 +/- 4 days
[4] = test system: 786-O RCC tumor xenograft; assay: Multiplexed immunohistochemistry analysis of tumors; format: in vivo, mouse; details: 786-O xenograft tumors

| SMILES | electrical impedance of endothelial monolayer [1] | tumor growth [2] | tumor blood flow (ASL MRI) [3] | S1P1 expression in tumors [4] | percent area of TUNEL [4] | percent area of tumor vessels (CD34) [4] |
| --- | --- | --- | --- | --- | --- | --- |
| CCCCCCCCCCCCC/C=C/[C@@H](O)[C@@H](N)COP(=O)(O)O [S1P, sphingosine-1-phosphate] | strongly increases electrical impedance |  |  |  |  |  |
| CCN(CC)CCNC(=O)c1c(C)[nH]c(/C=C2\C(=O)Nc3ccc(F)cc32)c1C [sunitinib] |  | slowed tumor growth | lower tumor blood flow than vehicle | significantly reduced | 10.9% | 7.2% |
